We go through one molecule from patent US20230140670A1, “FORMULATIONS” (Intellia Therapeutics, Inc., priority 2017, published 2023).

The assay relates to TTR. In words: Liver editing in mice by NGS (percent editing). It is filed as in vivo, mouse. The conditions noted are these: CD-1 mice; 0.1 mg per kg; 7 days post dose; FIG. 7F-7G. Here is the method:
CD-1 female mice, ranging from 6 to 10 weeks of age were used in each study. Animals were weighed and grouped according to body weight for preparing dosing solutions based on group average weight. LNPs were dosed via the lateral tail vein in a volume of 0.2 mL per animal (approximately 10 mL per kilogram body weight). […] Body weight was measured at twenty-four hours post-administration, and animals were euthanized at various time points by exsanguination via cardiac puncture under isoflurane anesthesia. Blood was collected into serum separator tubes or into tubes containing buffered sodium citrate for plasma as described herein. […]
In brief, to quantitatively determine the efficiency of editing at the target location in the genome, genomic DNA was isolated and deep sequencing was utilized to identify the presence of insertions and deletions introduced by gene editing.
PCR primers were designed around the target site (e.g., TTR), and the genomic area of interest was amplified. […] The reads were aligned to the […] after eliminating those having low quality scores. The resulting files containing the reads were mapped to the reference genome (BAM files), where reads that overlapped the target region of interest were selected and the number of wild type reads versus the number of reads which contain an insertion, substitution, or deletion was calculated. […]

For `CCCCC/C=C\C/C=C\CCCCCCCC(=O)OCC(COC(=O)CCC(OCCCCCCCC)OCCCCCCCC)COC(=O)OCCCN(CC)CC` (stereo not shown) [Lipid A, (9Z,12Z)-3-((4,4-bis(octyloxy)butanoyl)oxy)-2-((((3-(diethylamino)propoxy)carbonyl)oxy)methyl) propyl octadeca-9,12-dienoate], the “potency (TTR knockdown and liver editing)” value is “highest potency”.
